Converted amounts (≈) assume the structure as drawn. The source made the active and inactive calls. No cut-off for these calls is given here.
Legend:
Enterovirus A71 [1] = test: Antiviral activity against C4 type Human enterovirus 71 MP10 infected in ICR mouse assessed as increase in survival rate at 0.4 mg/kg, ip administered 2 hrs post infection qd for 7 days measured up to 14 days; format: functional; details: route intraperitoneal
Enterovirus A71 [2] = test: Antiviral activity against C4 type Human enterovirus 71 MP10 infected in ICR mouse assessed as recovery at 0.4 mg/kg, ip administered 2 hrs post infection qd for 7 days measured up to 14 days; format: functional, organism-based; parameters: dose 0.4 mg/kg
Mus musculus = test: Toxicity in Human enterovirus 71 MP10 infected ICR mouse at 0.4 to 1 mg/kg, ip qd for 7 days measured up to 14 days; format: organism-based; parameters: dose 0.4-1 mg/kg, route intraperitoneal; details: in vivo
Enterovirus A71 [3] = test: Antiviral activity against C4 type Human enterovirus 71 FY0805 infected in human RD cells assessed as inhibition of viral replication by plaque reduction assay; format: functional, organism-based; details: Enterovirus A
[4] = Cytotoxicity against human RD cells; format: cell-based
Enterovirus A71 [5] = test: Antiviral activity against C4 type Human enterovirus 71 MP10 infected in ICR mouse assessed as inhibition of viral replication in muscle at 0.4 mg/kg, ip administered 2 hrs post infection qd for 7 days measured up to 7 days by qRT-PCR analysis; format: functional, organism-based; parameters: dose 0.4 mg/kg; details: Muscle tissue
Enterovirus A71 [6] = test: Antiviral activity against C4 type Human enterovirus 71 MP10 infected in ICR mouse assessed as delay in appearance of infection symptoms at 0.4 mg/kg, ip administered 2 hrs post infection qd for 7 days measured up to 14 days; format: functional, organism-based; parameters: dose 0.4 mg/kg
Enterovirus A71 [7] = test: Antiviral activity against C4 type Human enterovirus 71 FY0805 infected in human RD cells assessed as inhibition of […] at 20 ug/ml treated 2 hrs post infection measured after 32 to 72 hrs by qRT-PCR analysis relative to control; format: functional, organism-based
Enterovirus A71 [8] = test: Antiviral activity against C4 type Human enterovirus 71 FY0805 infected in human RD cells assessed as inhibition of infectious virus yeild at 20 ug/ml treated 2 hrs post infection measured after 32 to 72 hrs by TCID50 assay relative to control; format: functional, organism-based
Enterovirus A71 [9] = test: Antiviral activity against C4 type Human enterovirus 71 MP10 infected in ICR mouse assessed as increase in survival rate at 1 mg/kg, ip administered 2 hrs post infection qd for 7 days measured up to 14 days; format: functional; details: route intraperitoneal
[10] = Selectivity index, ratio of CC50 for human RD cells to IC50 for C4 type Human enterovirus 71 FY0805; format: functional
Enterovirus A71 [11] = test: Antiviral activity against C4 type Human enterovirus 71 MP10 infected in ICR mouse assessed as disappearance of ruffled hair at 0.4 mg/kg, ip administered 2 hrs post infection qd for 7 days measured up to 14 days; format: functional, organism-based; parameters: dose 0.4 mg/kg
Enterovirus A71 [12] = test: Antiviral activity against C4 type Human enterovirus 71 MP10 infected in ICR mouse assessed as delay in paralysis at 0.4 mg/kg, ip administered 2 hrs post infection qd for 7 days measured up to 14 days; format: functional, organism-based; parameters: dose 0.4 mg/kg
Enterovirus A71 [13] = test: Antiviral activity against Human enterovirus 71 infected in mouse assessed as increase in survival rate; format: functional
Enterovirus A71 [14] = test: Antiviral activity against C4 type Human enterovirus 71 MP10 infected in ICR mouse assessed as increase in survival rate at 50 mg/kg, ip administered 2 hrs post infection qd for 7 days measured up to 14 days; format: functional; details: route intraperitoneal

SMILES	Activity (Enterovirus A71 [1]) [%]	Activity (Enterovirus A71 [2])	Activity (Mus musculus)	IC50 (Enterovirus A71 [3]) [µg/mL]	CC50 [4] [µg/mL]	inhibition (Enterovirus A71 [5])	Activity (Enterovirus A71 [6])	inhibition (Enterovirus A71 [7])	inhibition (Enterovirus A71 [8])	Activity (Enterovirus A71 [9]) [%]	Ratio CC50/IC50 [10]	Activity (Enterovirus A71 [11])	Activity (Enterovirus A71 [12])	Activity (Enterovirus A71 [13]) [%]	Activity (Enterovirus A71 [14]) [%]
O=C1O[C@H]2[C@@H]3OC(=O)c4cc(O)c(O)c(O)c4-c4c(cc(O)c(O)c4O)C(=O)OC[C@H]2O[C@@H](OC(=O)c2cc(O)c(O)c(O)c2)[C@@H]3OC(=O)c2cc(O)c(O)c3c2[C@@H]2C1=CC(=O)[C@](O)(O3)C2(O)O [GERANIIN]	35	Active	Non-toxic	10 (≈ 10.5 µM)	200 (≈ 210 µM)	Active	Active	Active	Active	40	20	Active	Active		
O[C@H]1[C@H]2c3cc4c(cc3CN3CCC(=C[C@@H]1O)[C@H]23)OCO4 [LYCORINE]														18	
NC(=O)c1ncn([C@@H]2O[C@H](CO)[C@@H](O)[C@H]2O)n1 [RIBAVIRIN]				60 (≈ 246 µM)											5
